Several values for one entry are separate records, joined by “and”; a condition that tells them apart may be missing. Equal entries are not always repeated. Entries after “also recorded” stand apart in the source; their conditions may differ. No end group written: not given here.
What was measured:
[1] = system: Balb/c mice; settings: single injection in the chest region, μg amounts of protein in IFA; cited from earlier work
[2] = system: PBMC from RA patients; experiment: recognition by PBMC ([3H]thymidine incorporation, stimulation index); assay type: cell-based, human; settings: Table 3b, per donor (169, 455, 447, 327)
[3] = system: PBMC from RA patients; experiment: as above; assay type: cell-based, human
Method: Peripheral blood mononuclear cells (PBMC) were isolated from heparinized peripheral blood by standard centrifugation on Ficoll-Paque (Pharmacia, Uppsala, Sweden). Cells were suspended in wells of a 24 well plate in a concentration of 5×10^5 cells per ml. Cells were incubated in medium alone or in the presence of 10 or 50 μg/ml peptide antigen (YKL-39 (266-278)). Cultures were incubated for 6 days at 37° C. in a humidified atmosphere of 5% CO2. Cells were then suspended and 100 or 150 μl volumes of medium was distributed in 4-fold in wells of a 96-well roundbottomed plate. Cells were then pulsed with 0.5 μCi (1.85×10^4 Bq) [3H]thymidine ([3H]TdR) and 18 hr later incorporated radioactivity was measured. Results as shown in table 3 are expressed as stimulation indices (SI) (antigen-specific counts/background counts).

[4] = system: HLA-DRB1*0401-restricted hybridomas specific for HC gp-39 (263-275) (8B12, 14G11, 20H5); experiment: stimulation of HC gp-39 (263-275)-specific T-cell hybridomas (IL-2 production); assay type: cell-based, mouse; settings: presented by DRB1*0401 EBV-transformed B cells, 48 hr
Method: To test the cross reactivity of the 3 different, HC gp39-specific hybridoma cell lines with the YKL-39 or the chitotriosidase peptide, 5×10^4 hybridoma cells and 2×10^5 irradiated (12000 RAD), EBV-transformed B cells carrying the DRB1*0401 specificity were incubated in 150 μl volumes in wells of a round-bottomed microtiter plate. Peptide antigen (HC gp-39 (263-275), YKL-39 (266-278), chitotriosidase (269-282) or a control peptide) was added in 50 μl volumes to duplicate wells. Forty-eight hr later 100 μl of the culture supernatant was assayed for IL-2 production using a sandwich ELISA with Pharmingen antibodies specific for mouse IL-2.

[5] = system: HC gp-39 (263-275) induced DTH response; experiment: HC gp-39 (263-275)-specific DTH assay, tolerance induction by nasal application; assay type: in vivo, Balb/c mice; settings: for tolerance: intranasal pretreatment 50, 10 or 2 micrograms, sensibilisation and challenge with HC gp-39 (263-275)
From the text: FIG. 2a, 2b, 2c In vivo tolerization with HC gp-39 (263-275) or YKL-39 ([…]) • Balb/c mice were tolerized by intranasal application of 50, 10 or 2 micrograms of HC gp-39 (263-275), SEQ ID NO: 3, (FIG. 2b) or YKL-39 (266-278) (FIG. 2c) followed by immunization with HC gp-39 (263-275). Mice that were pretreated with saline or that were left untreated were included as controls (FIG. 2a).
A HC gp-39 (263-275)-specific DTH assay suitable to monitor tolerance induction with peptide antigens was developed. […] This peptide-based DTH system was used to detect modulation of the DTH response by nasal application of HC gp-39 (263-275) peptide.

[6] = target: T1, HLA-DRB1*0401-encoded molecules (Homo sapiens, UniProt P01903+P01911, A100K/A169T/F76Y/I96L/K127E/L162R/M171V/N62H/P40V/Q125Y/R42H/S133A/S149N/S66Y/V115G/V209L/W38E); experiment: competition peptide HLA-DR binding assay
T1 construct: HLA-DR4 (DRB1*0401) molecules were purified from the homozygous EBV-transformed human B lymphoblastoid cell lines Huly138IC2; endogenous in cells; host or cells: homozygous EBV-transformed human B lymphoblastoid cell line Huly138IC2

| Substance | arthritogenicity [1] | SI 10 μg/ml ([2]; 10 μg/ml antigen) | SI 50 μg/ml ([2]; 50 μg/ml antigen) | recognition by PBMC (in words) ([3]; RA patients) | SI 10 μg/ml ([3]; Table 3a, per donor (RA patients), 10 μg/ml peptide, 6 days, SI = antigen-specific counts/background counts) | SI 50 μg/ml ([3]; Table 3a, per donor (RA patients), 50 μg/ml peptide, 6 days) | SI 10 μg/ml ([3]; Table 3b, per donor (169, 455, 447, 327), 10 μg/ml antigen) | SI 50 μg/ml ([3]; Table 3b, per donor (169, 455, 447, 327), 50 μg/ml antigen) | responder / non-responder ([3]; per donor, RA patients, SI >= 5 regarded positive) | activation of T-cell hybridomas, IL-2 production (in words) [4] | tolerance [5] | tolerance ([5]; listed as YKL-39 266-278) | downmodulation of the DTH response (in words) ([5]; nasal application, Balb/c mice immunised with HC gp-39 (263-275) in IFA) | binding affinity to DRB1*0401 (in words) [6] |
| --- | --- | --- | --- | --- | --- | --- | --- | --- | --- | --- | --- | --- | --- | --- |
| HC gp-39: human cartilage glycoprotein-39, a protein of 362 amino acids, target autoantigen in rheumatoid arthritis | induced a chronic joint inflammation | 1 and 12 and 24 and 45 | 1 and 19 and 44 and 95 | – | – | – | – | – | – | – | – | – | – | – |
| HSFTLASAETTVG [YKL-39 (266-278), HSFTLASAETTVG] | – | – | – | readily recognized | 9 and 15 and <2 (3×) and 4 and 3 (2×) and 19 | 9 and 4 and <2 (4×) and 27 and 25 and 58 | 1 and 6 and 27 and 20 | 2 and 5 and 32 and 35 | R (R = responder); also recorded: NR (NR = non-responder) | response similar to HC gp-39 (263-275) | yes | effective as a tolerogen | more enhanced downmodulation | very high affinity |
